In article PMC10924921, “Mi-2β promotes immune evasion in melanoma by activating EZH2 methylation” (Nature Communications, 2024):

Experiments:
Assay in all cases: biochemical
Design in all cases: KINOMEscan active-site competition binding panel (468 kinase assays), per cent of control at 1000 nM
Conditions in all cases: KINOMEscan per cent of control (binding competition); read-out: Percent Control
[1] = target: FGFR2 (Homo sapiens, UniProt P21802)
From the text: (§1) Figure S7 / Percent Control

[2] = target: MAST1 (Homo sapiens, UniProt Q9Y2H9)
From the text: as §1

[3] = target: PRKCQ (Homo sapiens, UniProt Q04759)
From the text: as §1

[4] = target: CSNK1E (Homo sapiens, UniProt P49674)
From the text: as §1

[5] = target: T1, MLK2 (Homo sapiens, UniProt Q02779)
T1 construct: gene MAP3K10
From the text: as §1

[6] = target: CDK8 (Homo sapiens, UniProt P49336)
From the text: as §1

[7] = target: T2, DLK (Homo sapiens, UniProt Q12852)
T2 construct: gene MAP3K12
From the text: as §1

[8] = target: WNK3 (Homo sapiens, UniProt Q9BYP7)
From the text: as §1

[9] = target: CSNK1G3 (Homo sapiens, UniProt Q9Y6M4)
From the text: as §1

[10] = target: MKNK2 (Homo sapiens, UniProt Q9HBH9)
From the text: as §1

[11] = target: PRKCI (Homo sapiens, UniProt P41743)
From the text: as §1

[12] = target: T3, ABL1(M351T)-phosphorylated (Homo sapiens, UniProt P00519, M351T)
T3 construct: phosphorylated
From the text: as §1

[13] = target: ALK(C1156Y) (Homo sapiens, UniProt Q9UM73, C1156Y)
From the text: as §1

[14] = target: PIK3CA(H1047Y) (Homo sapiens, UniProt P42336, H1047Y)
From the text: as §1

[15] = target: CDK5 (Homo sapiens, UniProt Q00535)
From the text: as §1

[16] = target: T4, ASK2 (Homo sapiens, UniProt O95382)
T4 construct: gene MAP3K6
From the text: as §1

[17] = target: T5, ERK1 (Homo sapiens, UniProt P27361)
T5 construct: gene MAPK3
From the text: as §1

[18] = target: T6, SNARK (Homo sapiens, UniProt Q9H093)
T6 construct: gene NUAK2
From the text: as §1

[19] = target: BMX (Homo sapiens, UniProt P51813)
From the text: as §1

[20] = target: T7, ERK4 (Homo sapiens, UniProt P31152)
T7 construct: gene MAPK4
From the text: as §1

[21] = target: NEK5 (Homo sapiens, UniProt Q6P3R8)
From the text: as §1

[22] = target: T8, CTK (Homo sapiens, UniProt P42679)
T8 construct: gene MATK
From the text: as §1

[23] = target: NEK1 (Homo sapiens, UniProt Q96PY6)
From the text: as §1

[24] = target: SLK (Homo sapiens, UniProt Q9H2G2)
From the text: as §1

[25] = target: RIOK3 (Homo sapiens, UniProt O14730)
From the text: as §1

T4 sequence (O95382 whole entry): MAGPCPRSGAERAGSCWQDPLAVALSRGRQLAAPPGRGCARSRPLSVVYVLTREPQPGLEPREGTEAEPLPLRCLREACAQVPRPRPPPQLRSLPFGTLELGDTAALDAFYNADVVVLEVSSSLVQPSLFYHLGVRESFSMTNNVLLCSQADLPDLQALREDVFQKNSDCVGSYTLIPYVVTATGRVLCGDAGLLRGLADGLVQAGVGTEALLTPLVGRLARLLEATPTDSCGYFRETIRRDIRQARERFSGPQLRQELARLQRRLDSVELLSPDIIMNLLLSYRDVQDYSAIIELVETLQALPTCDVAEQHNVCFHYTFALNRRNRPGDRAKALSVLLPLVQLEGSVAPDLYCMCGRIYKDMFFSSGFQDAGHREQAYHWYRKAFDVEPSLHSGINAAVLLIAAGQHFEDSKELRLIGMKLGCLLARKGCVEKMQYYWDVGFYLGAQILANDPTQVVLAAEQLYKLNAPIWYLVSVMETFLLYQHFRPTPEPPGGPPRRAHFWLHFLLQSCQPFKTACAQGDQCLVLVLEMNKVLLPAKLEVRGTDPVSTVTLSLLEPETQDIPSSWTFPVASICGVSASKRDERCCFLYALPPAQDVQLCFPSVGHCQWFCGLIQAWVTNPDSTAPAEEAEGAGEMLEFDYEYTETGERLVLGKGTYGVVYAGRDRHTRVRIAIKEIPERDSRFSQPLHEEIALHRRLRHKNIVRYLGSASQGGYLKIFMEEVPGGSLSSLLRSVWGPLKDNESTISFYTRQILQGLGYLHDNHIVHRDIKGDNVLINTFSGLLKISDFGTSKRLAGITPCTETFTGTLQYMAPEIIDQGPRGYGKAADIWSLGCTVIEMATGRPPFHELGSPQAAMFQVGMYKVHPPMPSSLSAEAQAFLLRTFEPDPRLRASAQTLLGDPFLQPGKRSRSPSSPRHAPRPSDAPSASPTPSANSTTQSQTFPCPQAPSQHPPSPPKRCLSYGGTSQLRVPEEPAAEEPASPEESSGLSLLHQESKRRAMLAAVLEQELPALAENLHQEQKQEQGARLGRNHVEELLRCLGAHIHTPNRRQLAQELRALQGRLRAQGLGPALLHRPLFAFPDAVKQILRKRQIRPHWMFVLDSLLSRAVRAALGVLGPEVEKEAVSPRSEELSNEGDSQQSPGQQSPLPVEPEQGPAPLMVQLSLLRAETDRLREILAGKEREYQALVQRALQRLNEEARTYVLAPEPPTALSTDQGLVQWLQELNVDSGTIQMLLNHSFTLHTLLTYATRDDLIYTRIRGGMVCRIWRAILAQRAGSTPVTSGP
Chain of CDK8 (P49336 whole entry): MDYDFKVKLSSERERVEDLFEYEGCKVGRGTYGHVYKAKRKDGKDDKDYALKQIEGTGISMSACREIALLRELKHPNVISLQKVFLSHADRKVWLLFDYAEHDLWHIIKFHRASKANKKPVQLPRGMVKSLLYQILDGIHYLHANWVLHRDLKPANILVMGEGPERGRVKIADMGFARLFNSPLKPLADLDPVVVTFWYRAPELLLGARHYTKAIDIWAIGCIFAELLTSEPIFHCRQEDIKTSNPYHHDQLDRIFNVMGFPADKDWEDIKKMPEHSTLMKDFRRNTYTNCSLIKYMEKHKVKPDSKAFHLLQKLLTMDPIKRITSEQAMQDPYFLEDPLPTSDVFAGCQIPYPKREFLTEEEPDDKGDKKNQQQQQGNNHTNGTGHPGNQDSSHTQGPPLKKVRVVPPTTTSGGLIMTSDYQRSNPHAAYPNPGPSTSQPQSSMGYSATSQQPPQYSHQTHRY
Chain of PRKCI (P41743 whole entry): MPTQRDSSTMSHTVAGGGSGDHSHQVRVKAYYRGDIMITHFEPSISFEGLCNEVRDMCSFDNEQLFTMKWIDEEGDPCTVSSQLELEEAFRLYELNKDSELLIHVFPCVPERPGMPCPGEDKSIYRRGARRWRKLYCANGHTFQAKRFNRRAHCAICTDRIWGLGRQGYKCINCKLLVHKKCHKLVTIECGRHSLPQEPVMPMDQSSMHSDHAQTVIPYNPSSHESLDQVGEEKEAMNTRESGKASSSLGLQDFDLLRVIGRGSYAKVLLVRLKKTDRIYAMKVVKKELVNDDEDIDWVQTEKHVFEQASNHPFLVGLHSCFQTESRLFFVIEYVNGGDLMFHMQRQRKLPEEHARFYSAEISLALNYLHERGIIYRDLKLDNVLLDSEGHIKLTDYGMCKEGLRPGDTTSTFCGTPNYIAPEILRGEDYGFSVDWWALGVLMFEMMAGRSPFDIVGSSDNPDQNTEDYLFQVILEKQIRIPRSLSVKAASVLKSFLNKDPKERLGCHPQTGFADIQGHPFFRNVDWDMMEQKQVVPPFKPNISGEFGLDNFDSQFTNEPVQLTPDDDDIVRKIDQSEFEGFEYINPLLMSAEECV
T2 sequence (Q12852 whole entry): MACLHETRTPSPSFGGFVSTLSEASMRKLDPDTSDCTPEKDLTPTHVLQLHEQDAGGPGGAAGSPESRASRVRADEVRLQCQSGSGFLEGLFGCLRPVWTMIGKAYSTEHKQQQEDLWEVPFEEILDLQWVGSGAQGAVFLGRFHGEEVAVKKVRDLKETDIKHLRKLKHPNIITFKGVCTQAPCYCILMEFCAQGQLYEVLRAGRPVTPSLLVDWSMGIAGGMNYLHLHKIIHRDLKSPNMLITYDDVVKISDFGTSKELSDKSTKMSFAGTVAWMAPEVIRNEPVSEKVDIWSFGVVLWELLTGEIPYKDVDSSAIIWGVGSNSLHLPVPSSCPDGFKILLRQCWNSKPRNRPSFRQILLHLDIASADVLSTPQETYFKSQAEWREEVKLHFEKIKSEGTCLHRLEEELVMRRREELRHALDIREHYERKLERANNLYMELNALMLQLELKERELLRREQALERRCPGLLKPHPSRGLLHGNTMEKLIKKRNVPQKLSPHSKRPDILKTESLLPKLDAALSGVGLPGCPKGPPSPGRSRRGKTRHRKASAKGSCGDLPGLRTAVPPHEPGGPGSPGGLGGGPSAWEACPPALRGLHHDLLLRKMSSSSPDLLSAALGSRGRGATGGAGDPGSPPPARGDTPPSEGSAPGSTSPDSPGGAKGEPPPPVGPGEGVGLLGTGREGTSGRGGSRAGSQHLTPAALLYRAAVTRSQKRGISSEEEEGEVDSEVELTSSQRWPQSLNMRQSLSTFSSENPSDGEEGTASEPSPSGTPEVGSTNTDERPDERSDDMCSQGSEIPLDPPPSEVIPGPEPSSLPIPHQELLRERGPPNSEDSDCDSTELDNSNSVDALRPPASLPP
Chain of WNK3 (Q9BYP7 whole entry): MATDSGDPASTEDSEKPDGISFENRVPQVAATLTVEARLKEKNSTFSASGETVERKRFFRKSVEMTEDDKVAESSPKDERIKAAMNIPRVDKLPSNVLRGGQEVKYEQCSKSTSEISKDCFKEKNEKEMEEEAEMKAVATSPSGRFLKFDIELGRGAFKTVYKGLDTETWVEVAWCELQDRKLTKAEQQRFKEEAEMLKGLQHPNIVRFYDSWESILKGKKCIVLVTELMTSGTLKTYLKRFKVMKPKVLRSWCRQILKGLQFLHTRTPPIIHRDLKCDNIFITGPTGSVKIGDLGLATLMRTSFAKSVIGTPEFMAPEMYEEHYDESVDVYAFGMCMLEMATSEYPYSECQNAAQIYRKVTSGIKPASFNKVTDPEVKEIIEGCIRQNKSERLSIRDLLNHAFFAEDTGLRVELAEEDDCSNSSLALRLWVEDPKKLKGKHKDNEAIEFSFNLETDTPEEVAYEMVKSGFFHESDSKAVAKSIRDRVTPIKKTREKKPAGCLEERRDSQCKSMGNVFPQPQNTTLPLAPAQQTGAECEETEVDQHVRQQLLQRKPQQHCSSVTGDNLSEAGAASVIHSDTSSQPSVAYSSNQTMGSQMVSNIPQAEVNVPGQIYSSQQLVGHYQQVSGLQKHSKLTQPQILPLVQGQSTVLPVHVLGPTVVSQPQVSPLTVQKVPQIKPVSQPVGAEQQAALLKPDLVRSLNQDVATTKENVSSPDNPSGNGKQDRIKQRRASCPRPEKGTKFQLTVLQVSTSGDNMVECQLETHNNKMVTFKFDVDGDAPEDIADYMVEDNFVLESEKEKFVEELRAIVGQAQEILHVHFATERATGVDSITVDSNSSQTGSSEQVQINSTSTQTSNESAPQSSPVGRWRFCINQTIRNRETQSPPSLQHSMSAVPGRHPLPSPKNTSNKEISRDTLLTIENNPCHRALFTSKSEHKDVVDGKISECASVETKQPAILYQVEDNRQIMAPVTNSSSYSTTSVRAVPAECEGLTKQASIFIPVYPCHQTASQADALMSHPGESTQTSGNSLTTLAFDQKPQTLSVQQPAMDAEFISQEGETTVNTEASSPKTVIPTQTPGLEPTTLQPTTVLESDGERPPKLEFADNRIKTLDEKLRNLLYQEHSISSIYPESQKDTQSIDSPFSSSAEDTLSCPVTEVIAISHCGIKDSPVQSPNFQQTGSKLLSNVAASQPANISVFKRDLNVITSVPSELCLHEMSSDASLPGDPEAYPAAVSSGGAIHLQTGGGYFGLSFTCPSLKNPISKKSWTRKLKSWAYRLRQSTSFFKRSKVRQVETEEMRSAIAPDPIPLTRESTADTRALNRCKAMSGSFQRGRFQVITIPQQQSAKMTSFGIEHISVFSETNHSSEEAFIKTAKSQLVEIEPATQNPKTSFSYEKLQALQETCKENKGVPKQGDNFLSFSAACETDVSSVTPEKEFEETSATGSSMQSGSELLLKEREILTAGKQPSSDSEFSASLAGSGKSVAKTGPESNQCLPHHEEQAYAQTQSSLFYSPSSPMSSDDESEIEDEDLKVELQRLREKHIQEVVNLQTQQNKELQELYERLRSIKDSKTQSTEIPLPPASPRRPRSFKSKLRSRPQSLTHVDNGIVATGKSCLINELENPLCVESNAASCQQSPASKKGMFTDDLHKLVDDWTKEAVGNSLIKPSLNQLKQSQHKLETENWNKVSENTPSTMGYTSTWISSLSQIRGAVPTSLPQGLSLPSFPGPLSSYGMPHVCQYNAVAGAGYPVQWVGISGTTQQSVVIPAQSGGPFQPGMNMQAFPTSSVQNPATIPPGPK

Work on `Cn1c(=O)[nH]c2ccc(-c3cccc(C(=O)NC4CCn5ccnc5C4)c3)cc21` (stereo not shown) [Z36-MP5] yielded a remaining binding at 1 µM [1] of 37%, a remaining binding at 1 µM [2] of 72% and a remaining binding at 1 µM [3] of 86%. For the same compound, the remaining binding at 1 µM [4] was 49%, the remaining binding at 1 µM [5] was 95% and the remaining binding at 1 µM [6] was 55%. For the same compound, the remaining binding at 1 µM [7] was 62%, the remaining binding at 1 µM [8] was 69% and the remaining binding at 1 µM [9] was 74%. For the same compound, the remaining binding at 1 µM [10] was 82%, the remaining binding at 1 µM [11] was 71% and the remaining binding at 1 µM [12] was 59%. The remaining binding at 1 µM [13] was 92%, the remaining binding at 1 µM [14] was 91% and the remaining binding at 1 µM [15] was 55%. The remaining binding at 1 µM [16] was 93%, the remaining binding at 1 µM [17] was 98% and the remaining binding at 1 µM [18] was 64%. The remaining binding at 1 µM [19] was 100%, the remaining binding at 1 µM [20] was 91% and the remaining binding at 1 µM [21] was 90%. The remaining binding at 1 µM [22] was 61%, the remaining binding at 1 µM [23] was 81% and the remaining binding at 1 µM [24] was 100%. It also gave a remaining binding at 1 µM [25] of 100%.
